In patent US20140371244A1, “METHOD FOR TREATING PROSTATE CANCER BY USE OF PHARMACEUTICAL COMPOSITION CONTAINING A3 ADENOSINE RECEPTOR AGONIST” (priority 2009, published 2014):

How the values were obtained:
[1] = system: RAW 264.7 cells; assay: MTT assay, cytotoxicity in RAW 264.7 cells; type: cell-based, mouse; conditions: 20 μM (highest concentration)
Protocol: In order to example whether the iNOS production inhibitory effect is attributable to the toxicity of the sample itself (inventive composition, thio-Cl-IB-MECA), an MTT (3-(4,5-dimethylthiazol-2-yl)-2,5-diphenyltetrazolium bromide) assay was performed.

[2] = system: IL-1β; assay: IL-1β gene and protein expression in LPS-stimulated RAW 264.7 cells; type: cell-based, mouse; conditions: 5, 10, 20 μM, LPS 1 μg/ml
Protocol: IL-1β is one of major factors involved in inflammation and functions to induce the expression of several genes related to inflammation and tissue injury. Thus, the effects of the inventive composition on the expressions of mRNA gene and protein of IL-1β were tested. Specifically, RAW 264.7 cells were pretreated with each of 20, 10 and 5 μM of the inventive composition (thio-Cl-IB-MECA) and treated with LPS (1 μg/ml) to induce inflammatory reactions, followed by culture for 4 hours. The RNA fraction was collected and cultured for 8 hours, and then the protein was collected and subjected to RT-PCR and Western blot.

[3] = system: NF-κB; assay: NF-κB signaling (Western blot, EMSA) in LPS-stimulated RAW 264.7 cells; type: cell-based, mouse
Source text: NF-κB is a transcription factor consisting of p65/p50 and is present in an inactivated state by binding to IκB in the cytoplasm, but when it is stimulated by, for example, LPS, it is activated by a series of processes, including the phosphorylation and degradation of IκB by IκB kinase (IKK). When NF-κB state becomes a free state, it moves into the nucleus and binds to the κB-binding site, thereby regulating the expression of genes, such as iNOS, TNF-α and IL-1β, which are involved in inflammatory reactions. Thus, the effect of the inventive composition on the NF-κB signaling system was tested by Western blot analysis and EMSA.
EMSA was performed in order to examine whether NF-κB moves into the nucleus to bind to DNA.

[4] = system: LNCaP; assay: Morphological change of LNCaP cells; type: cell-based, human; conditions: 40, 20 and 10 μM, 48 hours
Protocol: (§1) Each of LNCaP and PC-3 prostate cancer cell lines was treated with 40, 20 and 10 μM of thio-Cl-IB-MECA and cultured for 48 hours, and then the morphological change of the cells was observed.
(§2) Specifically, each type of the prostate cancer cells was diluted with 10% FBS (Fetal Bovine Serum)-containing medium to a density of 1.0×10^6 cells per 100 mm culture dish and cultured under the conditions of 37° C. and 5% CO2, followed by washing twice with PBS (Phosphate Buffered Saline). Thio-Cl-IB-MECA was diluted in 10% FBS-containing medium at required concentration, and then 10 ml of the culture medium prepared in the 100 mm culture dish was added thereto and incubated for a given time. The morphology of the cells was observed as a function of treatment time and concentration (FIGS. 11a and 11b).

[5] = system: PC-3; assay: Morphological change of PC-3 cells; type: cell-based, human; conditions: 40, 20 and 10 μM, 48 hours
Protocol: as §1, §2

[6] = system: LNCaP cells; assay: Cell cycle analysis (FACS) in LNCaP cells; type: cell-based, human; conditions: 40, 20 and 10 μM, 48 hours
Protocol: Cells were treated with 40, 20 and 10 μM of thio-Cl-IB-MECA and cultured for 48 hours, and the cell cycle of the cells was analyzed by flow cytometer analysis (FACS). Specifically, cells were diluted with 10% FBS-containing medium to a density of 1.0×10^6 cells per 100 mm culture dish and cultured under the conditions of 37° C. and 5% CO2 for 24 hours, followed by washing twice with PBS. Thio-Cl-IB-MECA was diluted in 10% FBS-containing medium at required concentration, and then 10 ml of the culture medium prepared in the 100 mm culture dish was added thereto and cultured for a given time. The non-adherent cells and adherent cells in the cell medium were collected and washed twice with PBS, after which 500 μL of 100% cold methanol was added thereto and the cells were fixed at 4° C. The cells were washed twice with PBS and allowed to stand in RNase A-containing solution for 30 minutes, after which the cells were stained with propidium iodide (PI) buffer for 5 minutes. After removal of the PI buffer, the cells were transferred into a polystyrene round-bottom tube, and cell cycle analysis was performed by FACScalibur® flow cytometry.

[7] = system: Human colorectal cancer HCT116 cells; assay: Morphological change of HCT116 cells; type: cell-based; conditions: 40 μM, 48 hours
Protocol: Human colorectal cancer HCT116 cells were treated with 40 μM of thio-Cl-IB-MECA and cultured for 48 hours, and then the morphological change of the cells was observed.
Specifically, HCT116 cells were diluted with 10% FBS (Fetal Bovine Serum)-containing medium to a density of 1.0×10^6 cells per 100 mm culture dish and cultured under the conditions of 37° C. and 5% CO2, followed by washing twice with PBS (Phosphate Buffered Saline). Thio-Cl-IB-MECA was diluted to a concentration of 40 μM, and then 10 ml of the culture medium prepared in the 100 mm culture dish was added thereto and incubated for a given time. The morphology of the cells was observed as a function of treatment time and concentration (FIG. 19).

`CNC(=O)[C@H]1S[C@@H](n2cnc3c(NCc4cccc(I)c4)nc(Cl)nc32)[C@H](O)[C@@H]1O` [thio-Cl-IB-MECA, 2-chloro-N^6-(3-iodobenzyl)-4′-thioadenosine-5′-N-methyluronamide] was tested, and the “viability of RAW 264.7 cells (MTT)” value [1] was 80%, the “expression of IL-1β gene” value ([2]; RT-PCR) was “concentration-dependently inhibited” and the “expression of IL-1β protein” value ([2]; Western blot) was “concentration-dependently inhibited”. The “degradation of IκB protein” value ([3]; 20 μM, 15 minutes after LPS) was “the degradation of IκB protein was inhibited”, the “DNA binding of NF-κB” value ([3]; EMSA) was “inhibited the DNA binding of NF-κB” and the “protein bonding of p65 subunit of NF-κB” value ([3]; EMSA) was “inhibited”. The “number of the cells, LNCaP” value [4] was “decreased in a concentration-dependent manner”, the “number of the cells, PC-3” value [5] was “decreased in a concentration-dependent manner” and the “G1 phase of cell cycle, LNCaP” value [6] was “an increase in the G1 phase appeared”. For the same compound, the “number of the cells, HCT116” value [7] was “decreased”.
